Reference: ChEMBL document CHEMBL5352406 (Eur J Med Chem, 2022)

What was measured:
SW480 = test: Antiproliferative activity against human SW480 cells assessed as cell growth inhibition after 72 hrs by MTT assay; assay type: functional
MCF7 = test: Antiproliferative activity against human MCF7 cells assessed as cell growth inhibition after 72 hrs by MTT assay; assay type: functional
Cholinesterase = Cholinesterase (Equus caballus, UniProt P81908); test: Inhibition of equine serum BuChE using […] as substrate for 20 mins by Ellman's method
Chain of Cholinesterase (P81908 whole entry): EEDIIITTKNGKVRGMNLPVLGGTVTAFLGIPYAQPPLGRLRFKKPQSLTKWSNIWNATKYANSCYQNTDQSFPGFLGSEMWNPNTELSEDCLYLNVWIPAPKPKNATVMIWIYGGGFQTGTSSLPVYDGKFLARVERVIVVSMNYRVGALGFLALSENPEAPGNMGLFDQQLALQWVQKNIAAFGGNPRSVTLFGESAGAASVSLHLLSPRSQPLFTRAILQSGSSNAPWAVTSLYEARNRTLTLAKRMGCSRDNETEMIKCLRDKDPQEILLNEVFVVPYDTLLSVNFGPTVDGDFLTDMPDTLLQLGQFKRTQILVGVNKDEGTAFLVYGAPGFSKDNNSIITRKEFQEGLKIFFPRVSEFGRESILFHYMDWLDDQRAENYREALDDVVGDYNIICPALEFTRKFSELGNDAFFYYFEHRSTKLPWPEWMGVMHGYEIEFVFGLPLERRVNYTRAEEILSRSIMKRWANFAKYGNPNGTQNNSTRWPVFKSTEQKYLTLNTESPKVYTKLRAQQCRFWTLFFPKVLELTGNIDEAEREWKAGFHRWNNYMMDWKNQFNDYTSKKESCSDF

[1] = target: Cyclin-dependent kinase 13/Cyclin-K (Homo sapiens) (UniProt Q14004+O75909); test: Inhibition of CDK13/Cyclin K (unknown origin) at 500 nM by ADP-Glo kinase assay relative to control; assay type: protein-complex assay
Chain of Cyclin-dependent kinase 13/Cyclin-K (Homo sapiens) (O75909 whole entry, looked up): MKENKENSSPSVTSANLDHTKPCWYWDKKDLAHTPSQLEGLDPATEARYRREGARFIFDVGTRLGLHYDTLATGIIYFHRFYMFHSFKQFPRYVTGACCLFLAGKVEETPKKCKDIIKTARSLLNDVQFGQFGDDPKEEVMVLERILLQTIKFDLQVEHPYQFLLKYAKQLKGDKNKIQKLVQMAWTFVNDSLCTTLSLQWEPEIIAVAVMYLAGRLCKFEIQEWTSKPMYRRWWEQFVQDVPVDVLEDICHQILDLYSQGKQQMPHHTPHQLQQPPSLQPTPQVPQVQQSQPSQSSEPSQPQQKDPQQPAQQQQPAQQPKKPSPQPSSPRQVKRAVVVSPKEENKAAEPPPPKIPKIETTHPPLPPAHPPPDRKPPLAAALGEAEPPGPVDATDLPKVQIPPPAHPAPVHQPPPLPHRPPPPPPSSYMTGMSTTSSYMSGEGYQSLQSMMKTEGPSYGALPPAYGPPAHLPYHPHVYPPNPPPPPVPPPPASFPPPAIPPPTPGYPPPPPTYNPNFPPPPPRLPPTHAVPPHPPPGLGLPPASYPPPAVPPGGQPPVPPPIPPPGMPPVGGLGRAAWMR
Chain of Cyclin-dependent kinase 13/Cyclin-K (Homo sapiens) (Q14004 whole entry, looked up): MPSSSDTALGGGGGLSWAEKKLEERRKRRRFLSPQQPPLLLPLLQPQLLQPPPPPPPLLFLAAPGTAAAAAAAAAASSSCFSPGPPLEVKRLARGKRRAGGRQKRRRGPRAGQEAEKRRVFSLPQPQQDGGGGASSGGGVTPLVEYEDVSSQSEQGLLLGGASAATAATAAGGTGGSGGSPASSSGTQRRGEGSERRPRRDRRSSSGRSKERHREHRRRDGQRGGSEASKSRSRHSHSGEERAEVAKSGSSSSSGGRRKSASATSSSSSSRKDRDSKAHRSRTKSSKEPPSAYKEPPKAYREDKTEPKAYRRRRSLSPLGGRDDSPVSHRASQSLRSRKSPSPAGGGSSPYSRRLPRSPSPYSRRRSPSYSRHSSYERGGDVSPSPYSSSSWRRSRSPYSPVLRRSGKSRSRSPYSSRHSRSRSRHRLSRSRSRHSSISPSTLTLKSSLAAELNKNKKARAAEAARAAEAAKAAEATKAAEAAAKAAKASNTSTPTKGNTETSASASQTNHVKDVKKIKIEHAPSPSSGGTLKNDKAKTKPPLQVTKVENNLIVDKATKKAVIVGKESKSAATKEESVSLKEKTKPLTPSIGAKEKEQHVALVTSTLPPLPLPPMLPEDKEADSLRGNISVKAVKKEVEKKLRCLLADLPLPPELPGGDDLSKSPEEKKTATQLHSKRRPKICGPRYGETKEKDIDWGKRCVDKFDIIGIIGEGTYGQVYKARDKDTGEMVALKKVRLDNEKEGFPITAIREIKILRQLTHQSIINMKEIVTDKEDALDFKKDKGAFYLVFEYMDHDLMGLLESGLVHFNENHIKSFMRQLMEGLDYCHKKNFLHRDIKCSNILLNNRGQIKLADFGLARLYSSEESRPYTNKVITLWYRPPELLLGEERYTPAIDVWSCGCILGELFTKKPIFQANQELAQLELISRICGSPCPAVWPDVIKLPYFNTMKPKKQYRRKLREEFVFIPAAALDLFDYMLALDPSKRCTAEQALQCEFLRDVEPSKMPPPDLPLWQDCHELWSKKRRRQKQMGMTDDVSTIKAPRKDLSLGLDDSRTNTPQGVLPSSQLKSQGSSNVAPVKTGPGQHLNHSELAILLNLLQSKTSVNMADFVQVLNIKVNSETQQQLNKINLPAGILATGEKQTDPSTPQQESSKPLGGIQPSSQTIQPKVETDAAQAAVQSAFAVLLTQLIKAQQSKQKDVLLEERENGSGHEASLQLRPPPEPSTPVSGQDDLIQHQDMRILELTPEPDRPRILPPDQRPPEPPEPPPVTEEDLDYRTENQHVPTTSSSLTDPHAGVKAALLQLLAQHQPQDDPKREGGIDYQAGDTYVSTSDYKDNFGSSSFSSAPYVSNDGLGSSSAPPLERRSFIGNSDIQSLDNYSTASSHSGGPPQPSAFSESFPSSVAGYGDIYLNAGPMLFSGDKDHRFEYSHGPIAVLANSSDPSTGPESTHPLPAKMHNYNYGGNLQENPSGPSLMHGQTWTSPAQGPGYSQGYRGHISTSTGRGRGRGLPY

[2] = target: Cyclin-Y/Cyclin-dependent kinase 16 (Homo sapiens) (UniProt Q00536+Q8ND76); test: Inhibition of CDK16/Cyclin Y (unknown origin) at 500 nM by ADP-Glo kinase assay relative to control; assay type: protein-complex assay
[3] = target: CDK18/Cyclin Y (Homo sapiens) (UniProt Q07002+Q8ND76); test: Inhibition of CDK18/Cyclin Y (unknown origin) at 500 nM by ADP-Glo kinase assay relative to control; assay type: protein-complex assay
[4] = target: CDK7/Cyclin H/MNAT1 (Homo sapiens) (UniProt P51946+P50613+P51948); test: Inhibition of CDK7/Cyclin H/MAT1 (unknown origin) at 500 nM by ADP-Glo kinase assay relative to control; assay type: protein-complex assay
[5] = target: Cyclin-dependent kinase 5/CDK5 activator 1 (Homo sapiens) (UniProt Q00535+Q15078); test: Inhibition of CDK5/p35 NCK (unknown origin) at 500 nM by ADP-Glo kinase assay relative to control; assay type: protein-complex assay
Chain of Cyclin-dependent kinase 5/CDK5 activator 1 (Homo sapiens) (Q00535 whole entry): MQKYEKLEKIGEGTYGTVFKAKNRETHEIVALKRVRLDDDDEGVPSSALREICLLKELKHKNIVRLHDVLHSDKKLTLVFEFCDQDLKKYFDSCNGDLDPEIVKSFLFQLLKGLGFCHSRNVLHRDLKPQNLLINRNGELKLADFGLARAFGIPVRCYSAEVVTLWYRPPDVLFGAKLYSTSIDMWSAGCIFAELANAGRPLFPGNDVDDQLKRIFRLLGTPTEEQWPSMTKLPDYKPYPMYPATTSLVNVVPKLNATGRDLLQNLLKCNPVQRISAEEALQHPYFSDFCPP
Chain of Cyclin-dependent kinase 5/CDK5 activator 1 (Homo sapiens) (Q15078 99-307 partner limits assumed): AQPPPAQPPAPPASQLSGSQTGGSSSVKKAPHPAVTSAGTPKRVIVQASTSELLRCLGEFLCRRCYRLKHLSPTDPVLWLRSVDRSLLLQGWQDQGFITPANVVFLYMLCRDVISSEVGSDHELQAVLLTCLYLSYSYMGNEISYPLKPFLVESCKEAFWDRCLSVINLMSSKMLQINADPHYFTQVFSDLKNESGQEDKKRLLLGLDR

[6] = target: CDK6/cyclin D1 (Homo sapiens) (UniProt P24385+Q00534); test: Inhibition of CDK6/Cyclin D1 (unknown origin) at 500 nM by ADP-Glo kinase assay relative to control; assay type: protein-complex assay
HCT-116 [7] = test: Induction of apoptosis in human HCT-116 cells assessed as viable cells at 10 nM measured after 48 hrs by Annexin V-FITC/PI assay (reference value: 88.5%); assay type: functional; details: read-out: Activity
HCT-116 [8] = test: Induction of apoptosis in human HCT-116 cells assessed as late apoptotic cells at 10 nM measured after 48 hrs by Annexin V-FITC/PI assay (reference value: 6.06%); assay type: functional
HCT-116 [9] = test: Induction of apoptosis in human HCT-116 cells assessed as necrotic cells at 10 nM measured after 48 hrs by Annexin V-FITC/PI assay (reference value: 2.31%); assay type: functional
HCT-116 [10] = test: Induction of apoptosis in human HCT-116 cells assessed as viable cells at 20 nM measured after 48 hrs by Annexin V-FITC/PI assay (reference value: 88.5%); assay type: functional; details: read-out: Activity
HCT-116 [11] = test: Induction of apoptosis in human HCT-116 cells assessed as necrotic cells at 20 nM measured after 48 hrs by Annexin V-FITC/PI assay (reference value: 2.31%); assay type: functional
[12] = Acute toxicity in Kunming mouse assessed as behavior change at 20 to 105 mg/kg, po measured for 2 weeks; assay type: organism-based; details: in vivo, 336 h, dose 20-105 mg/kg
[13] = Half life in Sprague-Dawley rat at 2 mg/kg, iv; assay type: ADME, organism-based; details: in vivo
[14] = Half life in Sprague-Dawley rat at 20 mg/kg, po; assay type: ADME, organism-based; details: in vivo
[15] = Cmax in Sprague-Dawley rat at 20 mg/kg, po; assay type: ADME, organism-based; design: dose 20 mg/kg, route po; details: in vivo
[16] = AUC (0 to t) in Sprague-Dawley rat at 2 mg/kg, iv; assay type: ADME, organism-based; design: dose 2 mg/kg, route iv; details: in vivo
[17] = Volume of distribution at steady state in Sprague-Dawley rat at 2 mg/kg, iv; assay type: ADME, organism-based; details: in vivo, read-out: Vdss
[18] = Oral bioavailability in Sprague-Dawley rat at 20 mg/kg; assay type: ADME, organism-based; details: in vivo
HCT-116 [19] = test: Antitumor activity against human HCT-116 cells xenografted in BALB/cA-nu mouse tumor model assessed as tumor weight growth inhibition at 10 mg/kg, intragastric administration for 21 days relative to control; assay type: functional; details: HCT-116, 504 h, route ig, time 21 day, read-out: TGI
CDK9/cyclin T1 = CDK9/cyclin T1 (Homo sapiens, UniProt P50750)
Description: Inhibition of CDK9/CyclinT1 (unknown origin) by ADP-Glo kinase assay

[20] = target: Cyclin-dependent kinase 1/cyclin B1 (Homo sapiens) (UniProt P06493+P14635); details: dose 500.0 nM
Chain of Cyclin-dependent kinase 1/cyclin B1 (Homo sapiens) (P06493 whole entry, looked up): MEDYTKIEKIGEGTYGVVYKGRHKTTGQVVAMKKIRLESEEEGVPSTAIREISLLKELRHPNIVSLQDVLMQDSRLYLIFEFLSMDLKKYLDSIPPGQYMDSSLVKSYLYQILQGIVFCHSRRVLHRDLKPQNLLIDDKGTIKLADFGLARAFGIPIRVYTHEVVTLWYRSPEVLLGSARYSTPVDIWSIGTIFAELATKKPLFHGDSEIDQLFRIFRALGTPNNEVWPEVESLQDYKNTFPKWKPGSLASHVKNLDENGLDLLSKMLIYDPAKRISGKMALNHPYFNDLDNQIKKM
Chain of Cyclin-dependent kinase 1/cyclin B1 (Homo sapiens) (P14635 whole entry, looked up): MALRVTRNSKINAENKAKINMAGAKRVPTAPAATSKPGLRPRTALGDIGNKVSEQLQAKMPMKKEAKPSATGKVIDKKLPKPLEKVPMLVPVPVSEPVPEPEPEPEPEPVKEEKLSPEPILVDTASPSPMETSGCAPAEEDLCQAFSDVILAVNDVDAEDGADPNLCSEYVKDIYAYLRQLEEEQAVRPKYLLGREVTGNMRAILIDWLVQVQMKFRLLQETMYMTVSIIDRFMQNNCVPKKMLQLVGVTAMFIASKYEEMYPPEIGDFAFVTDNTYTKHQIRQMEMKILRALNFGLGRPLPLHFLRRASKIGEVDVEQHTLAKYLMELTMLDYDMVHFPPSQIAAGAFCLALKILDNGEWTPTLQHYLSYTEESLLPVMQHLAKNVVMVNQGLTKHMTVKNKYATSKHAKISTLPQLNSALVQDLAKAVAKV
Description: Inhibition of CDK1/Cyclin B1 (unknown origin) at 500 nM by ADP-Glo kinase assay relative to control

[21] = target: CDK1/Cyclin E (Homo sapiens) (UniProt P06493+P24864); details: dose 500.0 nM
Chain of CDK1/Cyclin E (Homo sapiens) (P06493 whole entry, looked up): as the sequence (P06493 whole entry, looked up) above
Chain of CDK1/Cyclin E (Homo sapiens) (P24864 whole entry, looked up): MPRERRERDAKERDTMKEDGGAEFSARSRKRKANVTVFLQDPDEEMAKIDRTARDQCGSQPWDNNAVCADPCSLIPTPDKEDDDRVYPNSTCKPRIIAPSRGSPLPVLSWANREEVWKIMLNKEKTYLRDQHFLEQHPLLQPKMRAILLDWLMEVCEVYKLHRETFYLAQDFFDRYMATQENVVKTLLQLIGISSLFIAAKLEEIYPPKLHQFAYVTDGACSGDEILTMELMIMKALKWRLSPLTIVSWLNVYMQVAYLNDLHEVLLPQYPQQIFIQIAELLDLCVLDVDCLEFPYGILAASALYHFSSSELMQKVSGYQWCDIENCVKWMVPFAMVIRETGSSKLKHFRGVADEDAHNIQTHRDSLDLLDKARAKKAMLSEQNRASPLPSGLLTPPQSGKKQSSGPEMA
Description: Inhibition of CDK1/Cyclin E1 (unknown origin) at 500 nM by ADP-Glo kinase assay relative to control

## Cl.N[C@H]1CCN(c2c3c(nc4ccc(-c5ccnc(NC(=O)C6CC6)n5)cc24)CCCCC3)C1
SW480
  GI50: 13 nM
MCF7
  GI50: 6 nM
Cholinesterase
  IC50: 2770 nM
[1]
  inhibition: 80.9%
[2]
  inhibition: 76.1%
[3]
  inhibition: 68.1%
[4]
  inhibition: 60.4%
[5]
  inhibition: 41.4%
[6]
  inhibition: 22.1%
HCT-116 [7]
  viability at 0.01 µM: 74%
HCT-116 [8]
  Activity: ~7.47%
HCT-116 [9]
  Activity: 1.48%
HCT-116 [10]
  viability at 0.02 µM: 52.5%
HCT-116 [11]
  Activity: 1.23%
[12]
  Activity: Non-Toxic
[13]
  half-life: 0.461 h
[14]
  half-life: 1.77 h
[15]
  Cmax: 67.8 ng/mL
[16]
  AUC(0-t): 110 ng·h/mL
[17]
  Vd: 12.6 L/kg
[18]
  bioavailability: 27.5%
HCT-116 [19]
  inhibition in vivo at 10 mg/kg: 62.4%
CDK9/cyclin T1
  IC50: 2.41 nM
[20]
  inhibition: 77.3%
[21]
  inhibition: 48.6%
